Assays:
Test in all cases: microbe, parasite or virus in culture
Assay type in all cases: cell-based
[1] = test system: SARS-CoV-2 Wuhan strain from VIDO (SB); conditions: Severe acute respiratory syndrome coronavirus 2, Calu-3
[2] = test system: SARS-CoV-2 Nigeria (484); conditions: Severe acute respiratory syndrome coronavirus 2, Calu-3
[3] = test system: SARS-CoV-2 England (VOC 202012/01)
[4] = test system: SARS-CoV-2 South Africa (501Y.V2); conditions: Severe acute respiratory syndrome coronavirus 2, Calu-3

COc1c2n(c3ccccc13)[C@]1(O)C(=O)N(C)C(=O)[C@]1(O)c1c-2[nH]c2ccc(Cl)cc12 [CA, (11S,15R)-7-chloro-11,15-dihydroxy-23-methoxy-13-methyl-3,13,16-triazahexacyclo[14.7.0.0^2,10.0^4,9.0^11,15.0^17,22]tricosa-1(23),2(10),4(9),5,7,17,19,21-octaene-12,14-dione]
IC50 [1]: 57.7 nM
IC50 [2]: 12.2 nM
IC50 ([3]; Severe acute respiratory syndrome coronavirus 2, Calu-3): 0.801 nM
EC50 ([3]; Severe acute respiratory syndrome coronavirus 2, Calu-3, read-out: ED50): ~0.8 nM
IC50 [4]: 12.2 nM

From patent US12643899B2, “Antiviral agents, uses thereof and methods for their preparation” (The University of British Columbia, priority 2020, dated 2026)
